According to patent publication US7449484B2, “Compounds” (SmithKline Beecham Corporation, priority 2000, dated 2008):

What was measured:
[1] = test system: murine airpouch granuloma; test: Murine Air Pouch Granuloma Model of angiogenesis in vivo; design: species or system mice; conditions: positive control
Description: Measurement of Angiogenesis In Vivo—Murine Air Pouch Granuloma Model:
The murine airpouch granuloma model of chronic inflammation (Kimura et al., 1985, J. Pharmacobio-Dyn., 8:393-400; Colville-Nash et al., 1995, J. Pharm. and Exp. Ther., 274:1463-1472) whose disclosure is incorporated herein by reference in its entirety, is characterized by inflammatory cell influx, fibrous tissue proliferation and intense angiogenesis. […] In addition, angiogenesis can be accurately quantitated by a vascular casting method.
Day 1, mice are anesthetized using Aerrane (isoflurane) gas (5%) or other approved methods, after which 3 mls of air is injected into the dorsal subcutaneous tissue using a 27 g needle. Mice are allowed to recover. […]
When the granuloma is removed it is weighed and then dried for 3 days at 45° C. and reweighed. […] The carmine content is then determined against a carmine red standard curve (0.5 to 2 mg/ml) generated in extracted tissue from non carmine treated animals and read at 490 nm. Sample and standard values are determined typically using DeltaSoft Elisa analysis software (Biometallics Inc., Princeton, N.J.). […]
The effect of compounds on vascular density was typically measured for 6 days after induction of the granuloma. This time point has been determined to be at or near the peak of angiogenesis. […] Medroxyprogesterone had no effect on granuloma size as measured by dry weight.

melting point [°C]	Molecule	maximum reduction (vascular density) ([1]; measured 6 days after induction of the granuloma) [%]	effect on granuloma size as measured by dry weight ([1]; murine air pouch granuloma)
258 to 259	CCOc1ccc2cc(-c3nc(C(C)(C)C)[nH]c3-c3ccncc3)ccc2c1		
	medroxyprogesterone	50	no effect
